“Also recorded” adds a separate entry of the source.
Columns and labels:
P. aeruginosa = assay: Contact-killing assay (adapted from ISO 22196) on allyl-TPU blade-coated samples modified with Qx-SH; format: cell-based, Pseudomonas aeruginosa (ATCC 27853); conditions: for Mean CFU/Sample Recovered, P. aeruginosa: n = 1, negative control polypropylene 7.94 × 10^6
Protocol: (§1) To functionalize the allyl-TPU blade-coated samples with Qx-SH reagents, thiol-ene reactions were performed using the same procedure described for rhodamine-SH. Briefly, blade-coated films of allyl-TPU (250 μm thick, 2.0 cm diameter, ca. 110 mg, 20 μmol allyl) were submerged in 2 mL of an Ar purged (30 min) aqueous solution containing Qx-SH (10.0 mM) and LAP (5.0 mM), and allowed to pre-soak for 30 min under Ar. UV-treated samples were irradiated for 30 min (λ=365 nm, I=1.2 mW·cm^−2) while phys. ads. samples were kept in the absence of UV light for 30 min to control for any antimicrobial activity that is contributed by non-covalently attached QAC. Following treatment, the dye/photoinitiator solutions were drawn up and discarded, and the samples were rinsed with 5 mL of DI water (3×) then submerged in 5 mL of DI water. The samples were further rinsed with 10% EtOH (3×) and soaked in 10% EtOH for 15 min (3×), rinsing with 10% EtOH in between each soak.
(§2) For antimicrobial testing, blade-coated samples and catheter tubing of allyl-TPU were sterilized by EtO sterilization using an Anprolene benchtop sterilizer (Anderson Products, Inc., Haw River, N.C.) following the manufacturer's protocol to deliver approximately 0.5 cc·L^−1 of EtO gas over a 12 h sterilization cycle at 35% humidity and room temperature, followed by a 48 h purge under vacuum. The bacterial strains used in this study included Staphylococcus epidermidis (ATCC 12228), Staphylococcus aureus (25923), Escherichia coli (ATCC 25922), Pseudomonas aeruginosa (ATCC 27853), Enterococcus faecalis (ATCC 29212), and methicillin-resistant Staphylococcus aureus (MRSA) (ATCC BAA-41).
(§3) The contact-killing assay was performed on physically adsorbed (phys. ads.), and UV-treated blade-coated samples modified with a series of Qx-SH reagents using a method adapted from ISO 22196. See, International Organization for Standardization. Measurement of antibacterial activity on plastics and other non porous surfaces (ISO 22196:2011), the disclosure of which is incorporated herein by reference in its entirety. Briefly, the samples were inoculated with same day cultures of select bacteria (e.g. E. coli, S. epidermidis) in dilute nutrient media (0.2% tryptic soy broth (TSB) in 1× phosphate buffered saline (PBS)) at approximately 150 colony-forming units (CFU)·mm^−2. Generally, 35 uL of 8.5×10^5 CFU/mL cultures were dispersed across the surface of the sample using sterile polypropylene cover films (area=198 mm^2). Inoculated samples were incubated in a humidified room air incubator (36° C., ca. 80% rel. humidity) for 20 h. Following incubation, surviving cells were recovered from the samples using vigorous agitation (i.e. vortexing for 20 s in PBS). Surviving cells were enumerated via 10-fold series dilution and plating 100 μL onto tryptic soy agar (TSA), incubating overnight and then plate counting CFU. The mean CFU recovered per sample (CFU/sample) were calculated by accounting for dilutions. Internal controls samples of polypropylene and chlorhexidine treated with polypropylene were included in the assay.

S. aureus = assay: Live/dead fluorescence assay on blade-coated samples modified with Q8-SH; format: cell-based, Staphylococcus aureus (25923); conditions: within 5 min
Protocol: as §2
A live/dead assay was performed using overnight cultures of E. coli grown in TSB and S. aureus grown in Mueller-Hinton broth (MH). The cells were washed with PBS (3×), resuspended in PBS, and diluted to obtain an OD600=0.15 (measured using a Hach DR2800 Spectrophotometer, λ=600 nm). The bacterial suspensions (1.0 mL) were stained with 2.0 μL of a dye mixture containing equal portions of 3.34 mM SYTO 9 and 20 mM propidium iodide (L7012 LIVE/DEAD™ BACLIGHT™ Bacterial Viability Kit, ThermoFisher Scientific) and allowed to incubate at room temperature in the dark for 15 min. […] Live/dead microscopy was performed using an IX81 inverted microscope (Olympus, Center Valley, Pa.) and images were processed and quantified using ImageJ software.

E. faecalis = assay: Contact-killing assay (adapted from ISO 22196) on allyl-TPU blade-coated samples modified with Qx-SH; format: cell-based, Enterococcus faecalis (ATCC 29212); conditions: n = 1, negative control polypropylene 1.70 × 10^5
Protocol: as §1, §2, §3

CCCCCCCC[N+](C)(C)CCCCCCCCOC(=O)CCS.[Cl-] [Q8-SH]
reduction of P. aeruginosa (P. aeruginosa; UV-treated samples): complete reduction | Mean CFU/Sample Recovered, P. aeruginosa (P. aeruginosa; UV-treated samples): 0.00 CFU/Sample | reduction of P. aeruginosa (P. aeruginosa; phys. ads. samples): complete reduction | Mean CFU/Sample Recovered, P. aeruginosa (P. aeruginosa; phys. ads. samples): 0.00 CFU/Sample | portion of S. aureus killed (S. aureus; UV-treated samples): ca. 75% | S. aureus inoculum killed (in words) (S. aureus; UV-treated samples, within 10 min, OD600=0.15): nearly all; also recorded: majority | portion of S. aureus killed (S. aureus; phys. ads. samples): ca. 50% | Mean CFU/Sample Recovered, E. faecalis (E. faecalis; UV-treated samples): 0.00 CFU/Sample | Mean CFU/Sample Recovered, E. faecalis (E. faecalis; phys. ads. samples): 0.00 CFU/Sample
